Experimental data published in PMC10057893, “Synthesis and Biological Evaluation of New Schiff Bases Derived from 4-Amino-5-(3-fluorophenyl)-1,2,4-triazole-3-thione” (Molecules, 2023).
≈ marks a conversion by molar mass, not a printed value. Where two headings read alike, the source gives them in different places.

Columns and labels:
[1] = tested on: Bacillus subtilis ATCC 6633; assay: Broth microdilution MIC/MBC, antibacterial; format: cell-based; details: ATCC6633
Experimental: (§1) The minimal inhibitory concentration (MIC) was determined with the microdilution technique using 96-well polystyrene microplates (Medlab, Poland), as indicated by the European Committee on Antimicrobial Susceptibility Testing (EUCAST) guidelines. In this process, stock solutions of each tested Schiff base dissolved in dimethylsulphoxide (DMSO, Stanlab, Poland) were used at a concentration of 50 mg/mL. Before in vitro antibacterial activity detection, the basic concentration of 1000 µg/mL of each compound was prepared with Mueller–Hinton broth medium (MHB, BioMaxima, Lublin, Poland). The experiment was prepared using Mueller–Hinton broth medium in 96-well microplates. A series of two-fold dilutions of the tested compounds in the concentration range from 0.49 to 1000 μg/mL was made in culture broth medium. Then, 2 μL of bacterial inoculum with a density of 0.5 McFarland standard was added to each well. Each well was filled with a total volume of 100 μL. Then, the microtiter plates were incubated for 18 ± 2 h at 35 °C. After the incubation, the results were spectrophotometrically determined in Biotek ELx800 (Biokom, Janki, Poland) at 600 nm (OD600). The lowest concentration of the tested compounds with the absence of bacterial growth was determined as an MIC. Three replicates for each strain and compound were performed.
(§2) After incubation, 5 μL of the broth media cultured with bacteria or fungi were removed from each well of the plates used in the MIC experiments. Next, they were culturd onto the surface of the MHA medium (BioMaxima, Lublin, Poland) plate for bacteria or MHA +2% glucose plate for yeasts. The inoculated plates were incubated in the conditions mentioned above. After incubation, a visual reading of MBC or MFC values was made. […] Three replicates for each strain and compound were performed.

[2] = tested on: Micrococcus luteus ATCC 10240; assay: Broth microdilution MIC/MBC, antibacterial; format: cell-based; details: ATCC10240
Experimental: as §1, §2

[3] = tested on: Pseudomonas aeruginosa ATCC 27853; assay: Broth microdilution MIC/MBC, antibacterial; format: cell-based; details: ATCC27853
Experimental: as §1, §2

[4] = tested on: Escherichia coli ATCC 25922; assay: Broth microdilution MIC/MBC, antibacterial; format: cell-based; details: ATCC25922, Escherichia coli ATCC 25922
Experimental: as §1, §2

[5] = tested on: Klebsiella pneumoniae ATCC 13883; assay: Broth microdilution MIC/MBC, antibacterial; format: cell-based; details: ATCC13883, Klebsiella pneumoniae ATCC 13883
Experimental: as §1, §2

[6] = tested on: Staphylococcus epidermidis ATCC 12228; assay: Broth microdilution MIC/MBC, antibacterial; format: cell-based; details: ATCC12228
Experimental: as §1, §2

[7] = tested on: Staphylococcus aureus ATCC 6538; assay: Broth microdilution MIC/MBC, antibacterial; format: cell-based; details: ATCC6538
Experimental: as §1, §2

[8] = tested on: Candida auris CDC B11903; assay: Broth microdilution MIC/MFC, antifungal; format: cell-based; details: Candidozyma auris, CDCB11903
Experimental: (§3) To determine the antifungal activity of the newly synthesized Schiff bases against the reference strains of Candida spp., the broth microdilution method was used according to the EUCAST [52] and Clinical and Laboratory Standards Institute (CLSI) guidelines with some modifications to the medium. Before in vitro antifungal activity detection, the basic concentration of 1000 µg/mL of each compound was prepared with Mueller–Hinton broth (BioMaxima, Lublin, Poland) supplemented with 2% glucose (MHB+2% glucose). […] The final concentrations of the Schiff bases ranged from […] to 1000 µg/mL. All the reference strains of Candida spp. used were first subcultured to the Mueller–Hinton agar medium (BioMaxima, Lublin, Poland) with 2% glucose (MHA +2% glucose) at 37 °C for 24 h. Next, 2 µL of appropriate fungal suspensions was added to each well containing 100 µL of MHB + 2% glucose and the various concentrations of the tested Schiff bases.
as §2

[9] = tested on: Candida glabrata ATCC 15126; assay: Broth microdilution MIC/MFC, antifungal; format: cell-based; details: Nakaseomyces glabratus, ATCC15126
Experimental: as §3, §2

[10] = tested on: Candida lusitaniae ATCC 3449; assay: Broth microdilution MIC/MFC, antifungal; format: cell-based; details: Clavispora lusitaniae, ATCC3449
Experimental: as §3, §2

[11] = tested on: Candida albicans ATCC 10231; assay: Broth microdilution MIC/MFC, antifungal; format: cell-based; details: for MIC: ATCC10231
Experimental: as §3, §2

[12] = tested on: Candida krusei ATCC 14243; assay: Broth microdilution MIC/MFC, antifungal; format: cell-based; details: Pichia kudriavzevii, ATCC14243
Experimental: as §3, §2

[13] = tested on: Candida glabrata ATCC 90030; assay: Broth microdilution MIC/MFC, antifungal; format: cell-based; details: Nakaseomyces glabratus, ATCC90030
Experimental: as §3, §2

[14] = tested on: Candida tropicalis ATCC 1369; assay: Broth microdilution MIC/MFC, antifungal; format: cell-based; details: ATCC1369
Experimental: as §3, §2

[15] = MTT cell viability assay; format: cell-based; details: human, HaCaT cells (immortal keratinocytes), HaCaT normal cell line, read-out: Cytotoxic activity IC50 (converted)
Experimental: (§4) All the cell lines were purchased from the American Type Culture Collection (ATCC, Rockville, MD, USA) and cultured in strictly defined conditions according to the recommended ATCC protocol. The PC3 cells were cultured in RPMI 1640 (Roswell Park Memorial Institute, Biowest SAS, Nuaillé, France), while the MDA-MB-231 and HaCaT cells were maintained in DMEM (Dulbecco’s Modified Eagle’s Medium, Biowest SAS, Nuaillé, France) supplemented with 1% streptomycin and penicillin and in 10% heat-inactivated fetal bovine serum (FBS, Gibco BRL San Francisco, CA, USA) with 1% streptomycin and penicillin. The cells were incubated in a 37 °C/5% CO2 humidified incubator. They were cultured until 80–90% confluence was achieved. Then, they were harvested by treatment with 0.25% trypsin-0.02% EDTA (Gibco BRL, San Francisco, CA, USA) and used in the experiments. Untreated cells were used as a control. […] After 24 h of incubation, the culture medium was replaced with a fresh medium. […] Then, the medium was aspirated and formed formazan crystals were solubilized by adding isopropanol-DMSO mixture (1:1 vol). The intensity of the dissolved crystals was measured using a UVM 340 reader (ASYS Hitech GmbH, Eugendorf, Austria) at a wavelength of 570 nm. Cell viability was estimated by the percentage of MTT reduction in cells to which the tested compounds were added, compared to the control sample, where only the medium was added. The experiments were repeated three times. The IC50 was calculated using GraphPad Prism 9.0.0 (GraphPad Software).

[16] = tested on: PC3; assay: MTT cell viability assay; format: cell-based, human; details: Homo sapiens, PC-3, PC3, MTT, read-out: Cytotoxic activity IC50
Experimental: as §4

[17] = tested on: MDA-MB-231; assay: MTT cell viability assay; format: cell-based, human; details: Homo sapiens, MDA-MB-231, MTT, read-out: Cytotoxic activity IC50
Experimental: as §4

Row | MIC [1] | MIC [2] | MIC [3] | MIC [6] | MIC [7] | MIC [8] | MIC [9] | MIC [10] | MIC [11] | MIC [12] | MIC [13] | MIC [14] | melting point | SMILES | MBC [2] | MBC [6] | MBC [7] | MFC ([11]; ATCC10231, read-out: MFC) | IC50 at 72 h ([15]; 72 h (table footnote)) | IC50 at 72 h ([15]; same value in µg/mL) | IC50 ([16]; 72 h (table footnote)) | also measured
1 | 1000 µg/mL (≈ 3050 µM) | 125 µg/mL (≈ 381 µM) | > 1000 µg/mL | 500 µg/mL (≈ 1520 µM) | 500 µg/mL (≈ 1520 µM) | 1000 µg/mL (≈ 3050 µM) | 1000 µg/mL (≈ 3050 µM) | 1000 µg/mL (≈ 3050 µM) | 62.5 µg/mL (≈ 190 µM) | 500 µg/mL (≈ 1520 µM) | > 1000 µg/mL | 1000 µg/mL (≈ 3050 µM) | 215 to 216 °C | COc1ccc(C=Nn2c(-c3cccc(F)c3)n[nH]c2=S)cc1 [RO4, 5-(3-fluorophenyl)-4-[(4-methoxybenzylidene)amino]-2,4-dihydro-3H-1,2,4-triazole-3-thione] | > 1000 µg/mL | > 1000 µg/mL | > 1000 µg/mL | > 1000 µg/mL | > 100 µM | > 38.8 µg/mL | > 100 µM | MBC [3]: > 1000 µg/mL; MIC [4]: 1000 µg/mL (≈ 3050 µM); MIC [5]: 1000 µg/mL (≈ 3050 µM); MFC [11]: >1000 µg/mL; MFC [12]: > 1000 µg/mL; IC50 ([16]; same value in µg/mL): > 38.8 µg/mL; IC50 ([17]; 72 h (table footnote)): > 100 µM; IC50 ([17]; same value in µg/mL): > 38.8 µg/mL
2 |  |  |  |  |  |  |  |  |  |  |  |  | 189 to 192 °C | CCCOc1ccc(/C=N/n2c(-c3cccc(F)c3)n[nH]c2=S)cc1 [RO6, 5-(3-fluorofenylo)-4-[(4-propoxybenzylidene)amino]-2,4-dihydro-3H-1,2,4-triazole-3-thione] |  |  |  |  |  |  |  | 
3 | 500 µg/mL (≈ 1600 µM) | 125 µg/mL (≈ 400 µM) | > 1000 µg/mL | 250 µg/mL (≈ 800 µM) | 125 µg/mL (≈ 400 µM) | > 1000 µg/mL | > 1000 µg/mL | > 1000 µg/mL | 1000 µg/mL (≈ 3200 µM) | > 1000 µg/mL | > 1000 µg/mL | > 1000 µg/mL | 232 to 234 °C | Cc1cccc(C=Nn2c(-c3cccc(F)c3)n[nH]c2=S)c1 [RO9, 5-(3-fluorophenyl)-4-[(3-methylbenzylidene)amino]-2,4-dihydro-3H-1,2,4-triazole-3-thione] | > 1000 µg/mL | > 1000 µg/mL | > 1000 µg/mL | > 1000 µg/mL | > 100 µM | > 31.2 µg/mL | > 100 µM | MBC [1]: > 1000 µg/mL; IC50 ([16]; same value in µg/mL): > 31.2 µg/mL; IC50 ([17]; 72 h (table footnote)): > 100 µM; IC50 ([17]; same value in µg/mL): > 31.2 µg/mL

Row | SMILES | MIC [1] | MIC [2] | MIC [3] | MIC [6] | MIC [7] | MIC [8] | MIC [9] | MIC [10] | MIC [11] | MIC [12] | MIC [13] | MIC [14] | melting point | MBC [2] | MBC [6] | MBC [7] | MFC ([11]; ATCC10231, read-out: MFC) | IC50 at 72 h ([15]; 72 h (table footnote)) | IC50 at 72 h ([15]; same value in µg/mL) | IC50 ([16]; 72 h (table footnote)) | also measured
4 | CCCCOc1ccc(C=Nn2c(-c3cccc(F)c3)n[nH]c2=S)cc1 [RO8, 4-[(4-butoxybenzylidene)amino]-5-(3-fluorophenyl)-2,4-dihydro-3H-1,2,4-triazole-3-thione] | 1000 µg/mL (≈ 2700 µM) | 125 µg/mL (≈ 337 µM) | > 1000 µg/mL | 250 µg/mL (≈ 675 µM) | 250 µg/mL (≈ 675 µM) | > 1000 µg/mL | 500 µg/mL (≈ 1350 µM) | > 1000 µg/mL | 500 µg/mL (≈ 1350 µM) | > 1000 µg/mL | > 1000 µg/mL | > 1000 µg/mL | 183 to 185 °C | > 1000 µg/mL | > 1000 µg/mL | > 1000 µg/mL | > 1000 µg/mL | > 100 µM | > 37 µg/mL | > 100 µM | MIC [4]: 1000 µg/mL (≈ 2700 µM); MIC [5]: > 1000 µg/mL; MFC [9]: > 1000 µg/mL; IC50 ([16]; same value in µg/mL): > 37 µg/mL; IC50 ([17]; 72 h (table footnote)): > 100 µM; IC50 ([17]; same value in µg/mL): > 37 µg/mL
